Results: US11357779B2 (G1 Therapeutics, Inc., priority 2018, dated 2022)
Read-outs that look alike come from different tables or passages of the source.

Assay: Plasma concentration versus time of Compound I and metabolite Compound III in patients dosed QD or BID with Form B of Compound II plus fulvestrant
Type: in vivo, human
Conditions: human, plasma, oral; for concentration at 22 day: Day 22; for concentration at 24 h: Day 1, […]
Source text: Patients were enrolled into 1 of 2 parallel, independently operating, dose-escalation dosing cohorts with Form B of Compound II administered continuously either once daily (QD) or twice daily (BID) with food with fixed-dose fulvestrant (intramuscularly every 14 days for the first three injections and then every 28 days). Pre- or perimenopausal patients also received goserelin for the duration of study treatment. A […] agonist was started at least 28 days before the first dose of Form B, and those patients who were taking another LHRH agonist were switched to goserelin on Day 1. Patients were split into […] cohorts providing once a day (QD) dosing of 200 mg, 300 mg, 400 mg, 500 mg, or 650 mg of Form B, or twice a day (BID) dosing of 100 mg, 150 mg, or 200 mg of Form B. The second dose in BID cohorts was not administered in the evening until at least 12 hours after the initial morning dose of Form B. The dosing cohorts for Form B of Compound II are provided in Table 1.
Blood samples were collected at the following time points relative to the morning dose of Form B at Day 1 and at Day 29: pre-dose (0 hour) and 1, 2, 3, 4, 6, 8, 10, 12 (prior to the evening dose in the BID cohorts), and 24 (prior to the next day's morning dose) hours after dosing. A 5-minute time window was allowed for samples collected between the predose and 3 hours after Form B dosing. A 15-minute window was allowed for samples collected between 4 to 12 hours after Form B dosing. A 1-hour window was allowed for the sample collected 24 hours after Form B dosing. Blood samples for Compound I PK trough levels were collected pre-dose at Day 8, Day 15, and Day 22 prior to the morning administration of Compound I. Plasma concentrations of Compound I and its metabolite, Compound III, were measured using validated methods.
Analysis of plasma concentration versus time data for calculation of standard pharmacokinetic (PK) parameters following oral administration was conducted using Phoenix WinNonlin version 6.3 using actual blood sampling times.

CC(C)N1CCN(c2ccc(Nc3ncc4cc5n(c4n3)C3(CCCCC3)CNC5=O)nc2)CC1 [Compound I, 2′-((5-(4-isopropylpiperazin-1-yl)pyridin-2-yl)amino)-7′,8′-dihydro-6′H-spiro[cyclohexane-1,9′-pyrazino[1′,2′:1,5]pyrrolo[2,3-d]pyrimidin]-6′-one]
concentration at 15 day (150 mg, Cohort 7, 150 mg BID of Form B, Day 15, read-out: Trough Compound I Concentration, Min): 15.5 ng/mL
concentration at 22 day (150 mg, Cohort 7, 150 mg BID of Form B, read-out: Trough Compound I Concentration, Max): 30.5 ng/mL
concentration at 22 day (150 mg, Cohort 7, 150 mg BID of Form B, read-out: Trough Compound I Concentration, Median): 15.9 ng/mL
concentration at 22 day (150 mg, Cohort 7, 150 mg BID of Form B, read-out: Trough Compound I Concentration, Min): 15.5 ng/mL
concentration at 0 h (150 mg, Cohort 7, 150 mg BID of Form B, Day 29, 0.0 h, read-out: Compound I Concentration, Max): 51.1 ng/mL
concentration at 0 h (150 mg, Cohort 7, 150 mg BID of Form B, Day 29, 0.0 h, read-out: Compound I Concentration, Median): 18.5 ng/mL
concentration at 1 h (150 mg, Cohort 7, 150 mg BID of Form B, Day 29, 1.0 h, read-out: Compound I Concentration, Median): 28.7 ng/mL
concentration at 2 h (150 mg, Cohort 7, 150 mg BID of Form B, Day 29, 2.0 h, read-out: Compound I Concentration, Median): 34.3 ng/mL
concentration at 3 h (150 mg, Cohort 7, 150 mg BID of Form B, Day 29, 3.0 h, read-out: Compound I Concentration, Median): 35.6 ng/mL
concentration at 4 h (150 mg, Cohort 7, 150 mg BID of Form B, Day 29, 4.0 h, read-out: Compound I Concentration, Median): 36.9 ng/mL
concentration at 6 h (150 mg, Cohort 7, 150 mg BID of Form B, Day 29, 6.0 h, read-out: Compound I Concentration, Median): 26.5 ng/mL
concentration at 8 h (150 mg, Cohort 7, 150 mg BID of Form B, Day 29, 8.0 h, read-out: Compound I Concentration, Median): 26.9 ng/mL
concentration at 10 h (150 mg, Cohort 7, 150 mg BID of Form B, Day 29, 10.0 h, read-out: Compound I Concentration, Median): 23.8 ng/mL
concentration at 12 h (150 mg, Cohort 7, 150 mg BID of Form B, Day 29, 12.0 h, read-out: Compound I Concentration, Median): 17.3 ng/mL
concentration at 0 h (200 mg, 200 mg BID of Form B, Day 1, 0.0 h, Mean, read-out: Compound I Concentration): 0 ng/mL
concentration at 0 h (200 mg, 200 mg BID of Form B, Day 1, 0.0 h, Median, read-out: Compound I Concentration): 0 ng/mL
concentration at 1 h (200 mg, 200 mg BID of Form B, Day 1, 1.0 h, Mean, read-out: Compound I Concentration): 5.79 ng/mL
concentration at 1 h (200 mg, 200 mg BID of Form B, Day 1, 1.0 h, Median, read-out: Compound I Concentration): 6.13 ng/mL
concentration at 2 h (200 mg, 200 mg BID of Form B, Day 1, 2.0 h, Mean, read-out: Compound I Concentration): 9.42 ng/mL
concentration at 2 h (200 mg, 200 mg BID of Form B, Day 1, 2.0 h, Median, read-out: Compound I Concentration): 11.8 ng/mL
concentration at 3 h (200 mg, 200 mg BID of Form B, Day 1, 3.0 h, Mean, read-out: Compound I Concentration): 12.8 ng/mL
concentration at 3 h (200 mg, 200 mg BID of Form B, Day 1, 3.0 h, Median, read-out: Compound I Concentration): 14.8 ng/mL
concentration at 4 h (200 mg, 200 mg BID of Form B, Day 1, 4.0 h, Mean, read-out: Compound I Concentration): 15.5 ng/mL
concentration at 4 h (200 mg, 200 mg BID of Form B, Day 1, 4.0 h, Median, read-out: Compound I Concentration): 14.9 ng/mL
concentration at 6 h (200 mg, 200 mg BID of Form B, Day 1, 6.0 h, Mean, read-out: Compound I Concentration): 15.5 ng/mL
concentration at 6 h (200 mg, 200 mg BID of Form B, Day 1, 6.0 h, Median, read-out: Compound I Concentration): 17.1 ng/mL
concentration at 8 h (200 mg, 200 mg BID of Form B, Day 1, 8.0 h, Mean, read-out: Compound I Concentration): 8.94 ng/mL
concentration at 8 h (200 mg, 200 mg BID of Form B, Day 1, 8.0 h, Median, read-out: Compound I Concentration): 9.13 ng/mL
concentration at 10 h (200 mg, 200 mg BID of Form B, Day 1, 10.0 h, Mean, read-out: Compound I Concentration): 6.61 ng/mL
concentration at 10 h (200 mg, 200 mg BID of Form B, Day 1, 10.0 h, Median, read-out: Compound I Concentration): 6.33 ng/mL
concentration at 12 h (200 mg, 200 mg BID of Form B, Day 1, 12.0 h, Mean, read-out: Compound I Concentration): 5.64 ng/mL
concentration at 12 h (200 mg, 200 mg BID of Form B, Day 1, 12.0 h, Median, read-out: Compound I Concentration): 4.89 ng/mL
concentration at 0 h (200 mg, 200 mg QD of Form B, Day 1, 0.0 h, Mean, read-out: Compound I Concentration): 0 ng/mL
concentration at 0 h (200 mg, 200 mg QD of Form B, Day 1, 0.0 h, Median, read-out: Compound I Concentration): 0 ng/mL
concentration at 1 h (200 mg, 200 mg QD of Form B, Day 1, 1.0 h, Mean, read-out: Compound I Concentration): 8.42 ng/mL
concentration at 1 h (200 mg, 200 mg QD of Form B, Day 1, 1.0 h, Median, read-out: Compound I Concentration): 3.65 ng/mL
concentration at 2 h (200 mg, 200 mg QD of Form B, Day 1, 2.0 h, Mean, read-out: Compound I Concentration): 13.6 ng/mL
concentration at 2 h (200 mg, 200 mg QD of Form B, Day 1, 2.0 h, Median, read-out: Compound I Concentration): 12.3 ng/mL
concentration at 3 h (200 mg, 200 mg QD of Form B, Day 1, 3.0 h, Mean, read-out: Compound I Concentration): 20.2 ng/mL
concentration at 3 h (200 mg, 200 mg QD of Form B, Day 1, 3.0 h, Median, read-out: Compound I Concentration): 18.1 ng/mL
concentration at 4 h (200 mg, 200 mg QD of Form B, Day 1, 4.0 h, Mean, read-out: Compound I Concentration): 25 ng/mL
concentration at 4 h (200 mg, 200 mg QD of Form B, Day 1, 4.0 h, Median, read-out: Compound I Concentration): 27 ng/mL
concentration at 6 h (200 mg, 200 mg QD of Form B, Day 1, 6.0 h, Mean, read-out: Compound I Concentration): 16.8 ng/mL
concentration at 6 h (200 mg, 200 mg QD of Form B, Day 1, 6.0 h, Median, read-out: Compound I Concentration): 17.7 ng/mL
concentration at 8 h (200 mg, 200 mg QD of Form B, Day 1, 8.0 h, Mean, read-out: Compound I Concentration): 11.6 ng/mL
concentration at 8 h (200 mg, 200 mg QD of Form B, Day 1, 8.0 h, Median, read-out: Compound I Concentration): 12.2 ng/mL
concentration at 10 h (200 mg, 200 mg QD of Form B, Day 1, 10.0 h, Mean, read-out: Compound I Concentration): 8.28 ng/mL
concentration at 10 h (200 mg, 200 mg QD of Form B, Day 1, 10.0 h, Median, read-out: Compound I Concentration): 9.13 ng/mL
concentration at 12 h (200 mg, 200 mg QD of Form B, Day 1, 12.0 h, Mean, read-out: Compound I Concentration): 6.29 ng/mL
concentration at 12 h (200 mg, 200 mg QD of Form B, Day 1, 12.0 h, Median, read-out: Compound I Concentration): 6.43 ng/mL
concentration at 24 h (200 mg, 200 mg QD of Form B, Mean, read-out: Compound I Concentration): 3.61 ng/mL
concentration at 24 h (200 mg, 200 mg QD of Form B, Median, read-out: Compound I Concentration): 3.24 ng/mL
concentration at 0 h (200 mg, 200 mg QD of Form B, Day 29, 0.0 h, Mean, read-out: Compound I Concentration): 4.05 ng/mL
concentration at 0 h (200 mg, 200 mg QD of Form B, Day 29, 0.0 h, Median, read-out: Compound I Concentration): 4.1 ng/mL
concentration at 1 h (200 mg, 200 mg QD of Form B, Day 29, 1.0 h, Mean, read-out: Compound I Concentration): 5.12 ng/mL
concentration at 1 h (200 mg, 200 mg QD of Form B, Day 29, 1.0 h, Median, read-out: Compound I Concentration): 5.35 ng/mL
concentration at 2 h (200 mg, 200 mg QD of Form B, Day 29, 2.0 h, Mean, read-out: Compound I Concentration): 6.92 ng/mL
concentration at 2 h (200 mg, 200 mg QD of Form B, Day 29, 2.0 h, Median, read-out: Compound I Concentration): 7.27 ng/mL
concentration at 3 h (200 mg, 200 mg QD of Form B, Day 29, 3.0 h, Mean, read-out: Compound I Concentration): 12.5 ng/mL
